Laboratory results from patent publication US20090022806A1, “Nanoparticle and polymer formulations for thyroid hormone analogs, antagonists and formulations and uses thereof” (priority 2006, published 2009).
“And” between values parts separate entries of the source, which are not always exact repeats. Equal values may be shown once. “Also recorded” adds a separate entry of the source.

How the values were obtained:
[1] = tested on: citrated human whole blood; test: Thromboelastography (TEG) clot dynamics; settings: 25 ng TF + 2.25 mM Ca^+2 or 10 mM Ca^+2; n = 4
Procedure: Thromboelastography (TEG) has been used in various hospital settings since its development by Hartert in 1948. The principle of TEG is based on the measurement of the physical viscoelastic characteristics of blood clot. Clot formation was monitored at 37° C. in an oscillating plastic cylindrical cuvette (“cup”) and a coaxially suspended stationary piston (“pin”) with a 1 mm clearance between the surfaces, using a computerized Thrombelastograph (TEG Model 3000, Haemoscope, Skokie, Ill.). The cup oscillates in either direction every 4.5 seconds, with a 1 second mid-cycle stationary period; resulting in a frequency of 0.1 Hz and a maximal shear rate of 0.1 per second. The pin is suspended by a torsion wire that acts as a torque transducer. […] The torque experienced by the pin (relative to the cup's oscillation) is plotted as a function of time (FIG. 58).
TEG assesses coagulation by measuring various parameters such as the time latency for the initial initiation of the clot (R), the time to initiation of a fixed clot firmness (k) of about 20 mm amplitude, the kinetic of clot development as measured by the angle (α), and the maximum amplitude of the clot (MA). The parameter A measures the width of the tracing at any point of the MA. Amplitude A in mm is a function of clot strength or elasticity. The amplitude on the TEG tracing is a measure of the rigidity of the clot; the peak strength or the shear elastic modulus attained by the clot, G, is a function of clot rigidity and can be calculated from the maximal amplitude (MA) of the TEG tracing.
The following parameters were measured from the TEG tracing: • R, the reaction time (gelation time) represents the latent period before the establishment of a 3-dimensional fibrin gel network (with measurable rigidity of about 2 mm amplitude). • Maximum Amplitude (MA, in mm), is the peak rigidity manifested by the clot. • Shear elastic modulus or clot strength (G, dynes/cm^2) is defined by:
Blood was drawn from consenting volunteers under a protocol approved by the Human Investigations Committee of William Beaumont Hospital. Using the two syringe method, samples were drawn through a 21 gauge butterfly needle and the initial 3 ml blood was discarded.

[2] = tested on: chick chorioallantoic membrane (CAM); test: Chick chorioallantoic membrane (CAM) assay of angiogenesis; type: in vivo; settings: for effect on angiogenesis produced by T4: PTU applied to filter disks (1 mmol/L)
Procedure: Chorioallantoic membrane (CAM) Model of Angiogenesis: In vivo Neovascularization was examined by methods described previously. 9-12 Ten-day-old chick embryos were purchased from SPAFAS (Preston, Conn.) and incubated at 37° C. with 55% relative humidity. A hypodermic needle was used to make a small hole in the shell concealing the air sac, and a second hole was made on the broad side of the egg, directly over an avascular portion of the embryonic membrane that was identified by candling. A false air sac was created beneath the second hole by the application of negative pressure at the first hole, causing the CAM to separate from the shell. A window approximately 1.0 cm 2 was cut in the shell over the dropped CAM with a small-crafts grinding wheel (Dremel, division of Emerson Electric Co.), allowing direct access to the underlying CAM. FGF2 (1 μg/mL) was used as a standard proangiogenic agent to induce new blood vessel branches on the CAM of 10-day-old embryos. Sterile disks of No. 1 filter paper (Whatman International) were pretreated with 3 mg/mL cortisone acetate and 1 mmol/L PTU and air dried under sterile conditions. Thyroid hormone, hormone analogues, FGF2 or control solvents, and inhibitors were then applied to the disks and the disks allowed to dry. The disks were then suspended in PBS and placed on growing CAMs. […] At 24 hours, the MAPK cascade inhibitor PD 98059 was also added to CAMs topically by means of the filter disks.
After incubation at 37° C. with 55% relative humidity for 3 days, the CAM tissue directly beneath each filter disk was resected from control and treated CAM samples. Tissues were washed 3× with PBS, placed in 35-mm Petri dishes (Nalge Nunc), and examined under an SV6 stereomicroscope (Zeiss) at ×50 magnification. Digital images of CAM sections exposed to filters were collected using a 3-charge-coupled device color video camera system (Toshiba) and analyzed with Image-Pro software (Media Cybernetics). The number of vessel branch points contained in a circular region equal to the area of each filter disk were counted. One image was counted in each CAM preparation, and findings from 8 to 10 CAM preparations were analyzed for each treatment condition (thyroid hormone or analogues, FGF2, FGF2 antibody, PD 98059). In addition, each experiment was performed 3 times. The resulting angiogenesis index is the mean±SEM of new branch points in each set of samples.
Ten-day-old chick embryos were purchased £tom SPAFAS (Preston, Conn.) and were incubated at 37° C. with 55% relative humidity. A hypodermic needle was used to make a small hole in the blunt end of the egg and a second hole was made on the broad side of the egg, directly over an avascular portion of the embryonic membrane. Mild suction was applied to the first hole to displace the air sac and drop the CAM away from the shell. Using a Dremel model craft drill (Dremel, Racine, Wis.), a approx. 1.0 cm^2 window was cut in the shell over the false air sac, allowing access to the CAM. Sterile disks of No. 1 filter paper (Whatman, Clifton, N.J.) were pretreated with 3 mg/ml cortisone acetate and 1 mMm propylthiouracil and air dried under sterile conditions. […] The disks were then suspended in PBS and placed on growing CAMS. After incubation for 3 days, the CAM beneath the filter disk was resected and rinsed with PBS. Each membrane was placed in a 35 mm Petri dish and examined under an SV6 stereo-microscope at 50× magnification. Digital images were captured and analyzed with Image-Pro software (Mediacybemetics). The number of vessel branch points contained in a circular region equal to the filter disk were counted. One image from each of 8-10 CAM preparations for each treatment condition was counted, and in addition each experiment was performed 3 times.
Ten-day-old chick embryos were purchased from SPAFAS (Preston, Conn.) and were incubated at 37° C. with 55% relative humidity. Chick CAM assays were performed as previously described.

[3] = tested on: phosphorylated ERK1/2 in ECV304 endothelial cells; test: MAPK (ERK1/2) activation in ECV304 cells, nuclear pERK1/2 immunoblot; type: cell-based; settings: PD 98059 30 μmol/L or CGP41251 100 nmol/L for 30 minutes before 10^−7 M T4
Procedure: ECV304 endothelial cells were cultured in M199 medium with 0.25% hormone-depleted serum 13 for 2 days. […] Nuclear fractions were pre-pared from all samples by our method reported previously, the proteins separated by polyacrylamide gel electrophoresis, and transferred to membranes for immunoblotting with antibody to phosphorylated ERK 1/2.

[4] = tested on: Human dermal micro-vascular endothelial cells (HDMEC); test: Three-dimensional human micro-vascular endothelial sprouting assay; type: cell-based
Procedure: In Vitro Three-Dimensional Sprout Angiogenesis of Human Dermal Micro-Vascular Endothelial Cells (HDMEC) Cultured on Micro-Carrier Beads Coated with Fibrin: Confluent HDMEC (passages 5-10) were mixed with gelatin-coated Cytodex-3 beads with a ratio of 40 cells per bead. Cells and beads (150-200 beads per well for 24-well plate) were suspended with 5 ml EBM+15% normal human serum, mixed gently every hour for first 4 hours, then left to culture in a CO2 incubator overnight. The next day, 10 ml of fresh EBM+5% HS were added, and the mixture was cultured for another 3 hours. Before experiments, the culture of EC-beads was checked; then 500 ul of PBS was added to a well of 24-well plate, and 100 ul of the EC-bead culture solution was added to the PBS. The number of beads was counted, and the concentration of EC/beads was calculated.
A fibrinogen solution (1 mg/ml) in EBM medium with or without angiogenesis factors or testing factors was prepared. For positive control, 50 ng/ml VEGF+25 ng/ml FGF2 was used. EC-beads were washed with EBM medium twice, and EC-beads were added to fibrinogen solution. The experiment was done in triplicate for each condition. The EC-beads were mixed gently in fibrinogen solution, and 2.5 ul human thrombin (0.05 U/ul) was added in 1 ml fibrinogen solution; 300 ul was immediately transferred to each well of a 24-well plate. The fibrinogen solution polymerizes in 5-10 minutes; after 20 minutes, we added EBM+20% normal human serum+10 ug/ml aprotinin. The plate was incubated in a CO2 incubator. It takes about 24-48 hours for HDMEC to invade fibrin gel and form tubes.
A micro-carrier in vitro angiogenesis assay previously designed to investigate bovine pulmonary artery endothelial cell angiogenic behavior in bovine fibrin gels [Nehls and Drenckhahn, 1995a, b] was modified for the study of human microvascular endothelial cell angiogenesis in three-dimensional ECM environments (FIGS. 1 and 2). Briefly, human fibrinogen, isolated as previously described [Feng et al, 1999], was dissolved in M199 medium at a concentration of 1 mg/ml (pH 7.4) and sterilized by filtering through a 0.22 micron filter. An isotonic 1.5 mg/ml collagen solution was prepared by mixing sterile Vitrogen 100 in 5×M199 medium and distilled water. The pH was adjusted to 7.4 by 1N NaOH. In certain experiments, growth factors and ECM proteins (such as VEGF, bFGF, PDGF-BB, serum, gelatin, and fibronectin) were added to the fibrinogen or collagen solutions. About 500 EC-beads were then added to the 1 mg/ml fibrinogen or 1.5 mg/ml collagen solutions. Subsequently, EC-beads-collagen or EC-beads-fibrinogen suspension (500 EC-beads/ml) was plated onto 24-well plates at 300 ul/well. EC-bead-collagen cultures were incubated at 37° C. to form gel. The gelling of EC-bead-fibrin cultures occurred in less than 5 minutes at room temperature after the addition of thrombin to a final concentration of 0.5 U/ml. After gelation, 1 ml of fresh assay medium (EBM supplemented with 20% normal human serum for HDMEC or EBM supplemented with 10% fetal bovine serum was added to each well. The angiogenic response was monitored visually and recorded by video image capture. Specifically, capillary sprout formation was observed and recorded with a Nikon Diaphot-TMD inverted microscope (Nikon Inc.; Melville, N.Y.), equipped with an incubator housing with a Nikon NP-2 thermostat and Sheldon #2004 carbon dioxide flow mixer. The microscope was directly interfaced to a video system consisting of a Dage-MTI CCD-72S video camera and Sony 12″ PVM-122 video monitor linked to a Macintosh G3 computer. The images were captured at various magnifications using Adobe Photoshop. The effect of angiogenic factors on sprout angiogenesis was quantified visually by determining the number and percent of EC-beads with capillary sprouts. One hundred beads (five to six random low power fields) in each of triplicate wells were counted for each experimental condition. All experiments were repeated at least three times. […]

[5] = tested on: HMVEC-d cells; test: Microarray analysis (Affymetrix Human U133 Plus 2.0) of HMVEC-d cells; type: cell-based
Procedure: Microarray Analysis Ten micrograms of total RNA from HMVEC-d cells was amplified and biotin-labeled according to GeneChip Expression Analysis Technical Manual (Affymetrix, Santa Clara, Calif.). Fragmented cRNA was hybridized with human gene chip U133 PLUS 2 (Affymetrix); chips were washed and stained with streptavidin R-phycoerythrin (Molecular Probes, Eugene, Oreg.). The chips were scanned and the data were analyzed with Microarray Suite and Data Mining Tool (Affymetrix).
To further identify possible mechanisms of tetrac inhibition of VEGF-stimulated angiogenesis, microarray analysis was performed using the Human U133 Plus 2.0 array from Affymetrix. HDMEC cells were incubated with VEGF at 50 ng/ml for 24 hours with and without Tetrac (3 uM). […] As shown in FIGS. 49A-C, Angiopoietin-like 1 (ANGPTL-1, probe set ID # 231773) expression was increased 5.9 fold following VEGF treatment.

[6] = hormone 0.1 uM alone, pretreated FGF2 1.25 ng/ml + VEGF […], day 3
[7] = VEGF 50 ng/ml, 24 hours, vs untreated

[Ca+2].[Cl-].[Cl-] [Ca^+2, Calcium Chloride]
K [1]: 7.0 ± 0.7 min
MA (mm) [1]: 56.5 ± 2.2 mm
r [1]: 14.5 ± 2.5 min
α (angle) [1]: 47.3 ± 2.7 angle

COc1cccc(-c2cc(=O)c3ccccc3o2)c1N [PD 98059]
inhibition of angiogenesis induced by FGF2 (1 μg/mL) ([2]; PD 98059): effectively blocked; also recorded: also inhibited
inhibition of angiogenesis stimulated by T4 (0.1 μmol/L) and T3 (1 nmol/L) together ([2]; PD 98059 3 μmol/L): completely blocked; also recorded: fully inhibited
block of the pro-angiogenesis effect of T4 or FGF2 ([2]; PD 98059 at 0.8-8 μg): totally blocked
inhibition of T4-induced ERK1/2 activation [3]: inhibited; also recorded: blocked by both inhibitors
inhibition of the pro-angiogenesis action of T3, T4 or T4-agarose ([4]; tetrac 0.1 μM, PD 98059, XT199): significantly (P<0.01) blocked

N[C@@H](Cc1cc(I)c(Oc2ccc(O)c(I)c2)c(I)c1)C(=O)O [T3, 3,5,3′-triiodo-L-thyronine]
stimulation of angiogenesis ([4]; 0.01-0.1 μM): significant (P<0.01) stimulation of angiogenesis
Mean Tube Vessel Length (mm) ± SD ([4]; FGF2 25 ng + VEGF 50 ng, T3 20 ng, T4 23 ng, T4-agarose 23 ng, pre-treated with FGF2 1.25 ng/ml + VEGF […]): 1.88 ± 0.21 mm
Mean number of Migrated cells ± SD [4, 6]: 188 ± 15
Mean vessel Length (mm) ± SD [4, 6]: 0.91 ± 0.04 mm

FGF2: human recombinant FGF2, standard proangiogenic agent
fold increase in angiogenesis index ([2]; 1 μg of FGF2): 2-3 fold
fold increase in blood vessel branch formation ([2]; FGF2 1 μg/ml on filter disk, vs PBS): 2.2 fold and 2.4 fold
fold increase in angiogenesis ([2]; FIG. 4 experiment with FGF2 antibody, concentration not given, 3 experiments): 2 fold

VEGF
ANGPTL-3 expression ([5]; VEGF 50 ng/ml, 24 hours): unaffected
ANGPTL-1 expression, fold increase [5, 7]: 5.9 fold
ANGPTL-2 expression, fold increase [5, 7]: 1.6 fold
MMP-15 expression, fold increase ([5]; VEGF treatment): 5.1 fold
MMP-19 expression, fold increase ([5]; VEGF treatment): 2.9 fold
MMP-24 expression ([5]; VEGF treatment): slightly decreased

CCCc1cc(=O)[nH]c(=S)[nH]1 [PTU, 6-N-propyl-2-thiouracil]
effect on angiogenesis produced by T4 [2]: no inhibitory effect
effect on angiogenesis produced by T4 ([2]; listed as Propylthiouracil): has no effect

O=C(O)Cc1cc(I)c(Oc2ccc(O)c(I)c2)c(I)c1 [TRIAC, triiodothyroacetic acid]
block of the pro-angiogenic effect of T4 or T4-agarose ([2]; CAM model): 100%
